Test results published in patent publication US20250163047A1, “HETEROCYCLIC COMPOUNDS, COMPOSITIONS THEREOF, AND METHODS OF TREATMENT THEREWITH” (BeiGene, Ltd., priority 2022, published 2025).
pIC50: −log10 of the molar value.

How the values were obtained:
Cbl-b (aa36-427) = molecular target: T1, Cbl-b (aa36-427) (Homo sapiens, UniProt Q13191); test: Co-expressed Cbl-b with BirA biochemical assay (CBLB/E2-Ub binding, HTRF); conditions: 0.6 nM Cbl-b co-expressed with BirA, HTRF; read-out: co-express CBLB/E2-Ub-binding assay IC50
T1 construct: Cbl-b (aa36-427, in-house); made in house
Description: (§1) The assay in the absence of a Cbl-b/Cbl inhibitor, where phosphorylation of Cbl-b/Cbl by the Src kinase allows UbcH5B-Ub to bind to Cbl-b/Cbl and brings the Bodipy-Fluorescein tagged ubiquitin in proximity to the streptavidin-terbium bound to the N-terminal biotinylated Avi-tagged Cbl-b/Cbl. […] The lack of a FRET signal indicates Cbl-b/Cbl is inhibited by the Cbl-b/Cbl inhibitor.

Cbl (aa49-434) = molecular target: T2, Cbl (aa49-434) (Homo sapiens, UniProt P22681); test: Co-expressed Cbl with BirA biochemical assay (CBL/E2-Ub binding, HTRF); conditions: 0.6 nM Cbl co-expressed with BirA, read-out: co-express CBL/E2-Ub-binding assay IC50
T2 construct: Cbl (aa49-434, in-house); made in house
T2 sequence (P22681 49-434): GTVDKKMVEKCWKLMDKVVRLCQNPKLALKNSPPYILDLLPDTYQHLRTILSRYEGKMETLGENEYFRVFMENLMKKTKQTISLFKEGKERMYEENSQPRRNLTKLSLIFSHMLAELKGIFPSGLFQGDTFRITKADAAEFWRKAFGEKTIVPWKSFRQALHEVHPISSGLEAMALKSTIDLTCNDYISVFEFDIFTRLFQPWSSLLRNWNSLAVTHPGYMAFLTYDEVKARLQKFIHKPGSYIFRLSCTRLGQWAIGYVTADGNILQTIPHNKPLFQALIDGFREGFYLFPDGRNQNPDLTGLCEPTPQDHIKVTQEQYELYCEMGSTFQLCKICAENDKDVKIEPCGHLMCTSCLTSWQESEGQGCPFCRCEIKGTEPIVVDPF
Description: as §1

T1 sequence (Q13191 36-427): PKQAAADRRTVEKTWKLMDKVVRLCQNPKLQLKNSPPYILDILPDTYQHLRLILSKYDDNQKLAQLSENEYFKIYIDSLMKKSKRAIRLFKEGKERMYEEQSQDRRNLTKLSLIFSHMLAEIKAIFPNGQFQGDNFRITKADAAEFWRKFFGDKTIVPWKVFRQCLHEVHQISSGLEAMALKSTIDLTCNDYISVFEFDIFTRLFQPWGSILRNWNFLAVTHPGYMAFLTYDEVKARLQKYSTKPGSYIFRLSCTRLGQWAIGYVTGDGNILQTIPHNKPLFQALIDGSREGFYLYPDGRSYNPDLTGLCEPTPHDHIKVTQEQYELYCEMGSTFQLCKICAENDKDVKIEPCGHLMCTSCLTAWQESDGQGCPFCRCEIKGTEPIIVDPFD

SMILES | pIC50 (Cbl-b (aa36-427)) | pIC50 (Cbl (aa49-434))
C[C@H]1CCCN(Cc2cc(C(=O)Nc3cccc([C@]4(c5nncn5C)C[C@@H](C)C4)c3)c3ncc(F)n3c2)C1 [Compound A6, 3-fluoro-6-{[(3S)-3-methylpiperidin-1-yl]methyl}-N-{3-[(1r, 3s)-3-methyl-1-(4-methyl-1,2,4-triazol-3-yl)cyclobutyl]phenyl}imidazo[1,2-a]pyridine-8-carboxamide] | 8.14 | 7.70
C[C@H]1CCCN(Cc2cc(C(=O)Nc3cccc(C4(Cc5nncn5C)COC4)c3)c3nc(F)cn3c2)C1 [Compound A7, (S)-2-fluoro-N-(3-(3-((4-methyl-4H-1,2,4-triazol-3-yl)methyl)oxetan-3-yl)phenyl)-6-((3-methylpiperidin-1-yl)methyl)imidazo[1,2-a]pyridine-8-carboxamide] | 8.36 | 7.84
C[C@H]1CCCN(Cc2cc(C(=O)Nc3cccc([C@]4(c5nncn5C)C[C@@H](C)C4)c3)c3nc(F)cn3c2)C1 [Compound A8, 2-fluoro-N-(3-((1s,3R)-3-methyl-1-(4-methyl-4H-1,2,4-triazol-3-yl)cyclobutyl)phenyl)-6-(((S)-3-methylpiperidin-1-yl)methyl)imidazo[1,2-a]pyridine-8-carboxamide] | 8.22 | 7.73
Cn1cnnc1CC1(c2cccc(NC(=O)c3cc(CNC4CCCCC4)cn4ccnc34)c2)COC1 [Compound A9, 6-((cyclohexylamino)methyl)-N-(3-(3-((4-methyl-4H-1,2,4-triazol-3-yl)methyl)oxetan-3-yl)phenyl)imidazo[1,2-a]pyridine-8-carboxamide] | 7.89 | 7.61
Cc1cnc2c(C(=O)Nc3cccc([C@]4(c5nncn5C)C[C@@H](CC#N)C4)c3)cc(CN3CCC[C@H](C)C3)cn12 [Compound A10, 3-methyl-6-{[(3S)-3-methylpiperidin-1-yl]methyl}-N-{3-[(1s, 3s)-3-(cyanomethyl)-1-(4-methyl-1,2,4-triazol-3-yl)cyclobutyl]phenyl}imidazo[1,2-a]pyridine-8-carboxamide] | 7.92 | 7.15
C[C@H]1CCCN(Cc2cc(C(=O)Nc3cccc([C@]4(c5nncn5C)C[C@@H](CC#N)C4)c3)n3nccc3c2)C1 [Compound A11, 5-{[(3S)-3-methylpiperidin-1-yl]methyl}-N-{3-[(1s, 3s)-3-(cyanomethyl)-1-(4-methyl-1,2,4-triazol-3-yl)cyclobutyl]phenyl}pyrazolo[1,5-a]pyridine-7-carboxamide] | 8.18 | 7.34
C[C@H]1CCCN(Cc2cc(C(=O)Nc3cccc([C@]4(c5nncn5C)C[C@@H](CC#N)C4)c3)c3ncc(F)n3c2)C1 [Compound A12, 3-fluoro-6-{[(3S)-3-methylpiperidin-1-yl]methyl}-N-{3-[(1s, 3s)-3-(cyanomethyl)-1-(4-methyl-1,2,4-triazol-3-yl)cyclobutyl]phenyl}imidazo[1,2-a]pyridine-8-carboxamide] | 8.41 | 7.49
C[C@H]1CCCN(Cc2cc(C(=O)Nc3cccc([C@]4(c5nncn5C)C[C@@H](CC#N)C4)c3)c3nc(F)cn3c2)C1 [Compound A13, N-(3-((1s,3R)-3-(cyanomethyl)-1-(4-methyl-4H-1,2,4-triazol-3-yl)cyclobutyl)phenyl)-2-fluoro-6-(((S)-3-methylpiperidin-1-yl)methyl)imidazo[1,2-a]pyridine-8-carboxamide] | 8.21 | 7.33
C[C@H]1CCCN(Cc2cc(C(=O)Nc3cccc([C@]4(c5nncn5C)C[C@@H](CC#N)C4)c3)n3ncnc3c2)C1 [Compound A14, N-(3-((1s,3R)-3-(cyanomethyl)-1-(4-methyl-4H-1,2,4-triazol-3-yl)cyclobutyl)phenyl)-7-(((S)-3-methylpiperidin-1-yl)methyl)-[1,2,4]triazolo[1,5-a]pyridine-5-carboxamide] | 7.34 | 6.73
Cn1cnnc1[C@]1(c2cccc(NC(=O)c3cc(CNCC4(C)CCCC4)cn4ccnc34)c2)C[C@H](CC#N)C1 [Compound A15, N-(3-((1s, 3s)-3-(cyanomethyl)-1-(4-methyl-4H-1,2,4-triazol-3-yl)cyclobutyl)phenyl)-6-((((1-methylcyclopentyl)methyl)amino)methyl)imidazo[1,2-a]pyridine-8-carboxamide] | 9.05 | 8.40
Cn1cnnc1[C@]1(c2cccc(NC(=O)c3cc(CNC4(C)CC4)cn4ccnc34)c2)C[C@H](C)C1 [Compound A16, N-(3-((1s, 3s)-3-methyl-1-(4-methyl-4H-1,2,4-triazol-3-yl)cyclobutyl)phenyl)-6-(((1-methylcyclopropyl)amino)methyl)imidazo[1,2-a]pyridine-8-carboxamide] | 9.05 | 8.23
Cn1cnnc1[C@]1(c2cccc(NC(=O)c3cc(CNC4(C)CC4)cn4c(F)cnc34)c2)C[C@H](CC#N)C1 [Compound A17, N-(3-((1s, 3s)-3-(cyanomethyl)-1-(4-methyl-4H-1,2,4-triazol-3-yl)cyclobutyl)phenyl)-3-fluoro-6-(((1-methylcyclopropyl)amino)methyl)imidazo[1,2-a]pyridine-8-carboxamide] | 9.10 | 7.68
CC(C)CNCc1cc(C(=O)Nc2cccc([C@]3(c4nncn4C)C[C@@H](C)C3)c2)c2nccn2c1 [Compound A18, 6-((isobutylamino)methyl)-N-(3-((1s, 3s)-3-methyl-1-(4-methyl-4H-1,2,4-triazol-3-yl)cyclobutyl)phenyl)imidazo[1,2-a]pyridine-8-carboxamide] | 8.96 | 8.22
C[C@H](NCc1cc(C(=O)Nc2cccc([C@]3(c4nncn4C)C[C@@H](C)C3)c2)c2ncc(F)n2c1)C1CC1 [Compound A19, 6-((((S)-1-cyclopropylethyl)amino)methyl)-3-fluoro-N-(3-((1s,3R)-3-methyl-1-(4-methyl-4H-1,2,4-triazol-3-yl)cyclobutyl)phenyl)imidazo[1,2-a]pyridine-8-carboxamide] | 8.77 | 8.09
C[C@H]1CCCN(Cc2cc(C(=O)Nc3cccc([C@]4(c5nncn5C)C[C@@H](CC#N)C4)c3)n3ncc(F)c3c2)C1 [Compound A20, 3-fluoro-5-{[(3S)-3-methylpiperidin-1-yl]methyl}-N-{3-[(1s, 3s)-3-(cyanomethyl)-1-(4-methyl-1,2,4-triazol-3-yl)cyclobutyl]phenyl}pyrazolo[1,5-a]pyridine-7-carboxamide] | 8.52 | 7.58
C[C@H]1CCCN(Cc2cc(C(=O)Nc3cccc([C@]4(c5nncn5C)C[C@@H](CC#N)C4)c3)n3ncc(Cl)c3c2)C1 [Compound A21, 3-chloro-N-(3-((1s,3R)-3-(cyanomethyl)-1-(4-methyl-4H-1,2,4-triazol-3-yl)cyclobutyl)phenyl)-5-(((S)-3-methylpiperidin-1-yl)methyl)pyrazolo[1,5-a]pyridine-7-carboxamide] | 8.54 | 7.51
Cn1cnnc1[C@]1(c2cccc(NC(=O)c3cc(CNCC4CCC4)cn4ccnc34)c2)C[C@H](C)C1 [Compound A22, 6-(((cyclobutylmethyl)amino)methyl)-N-(3-((1s, 3s)-3-methyl-1-(4-methyl-4H-1,2,4-triazol-3-yl)cyclobutyl)phenyl)imidazo[1,2-a]pyridine-8-carboxamide] | 8.96 | 8.44
Cn1cnnc1[C@]1(c2cccc(NC(=O)c3cc(CN[C@H]4CCC(F)(F)C4)cn4ccnc34)c2)C[C@H](CC#N)C1 [Compound A23, N-(3-((1s,3R)-3-(cyanomethyl)-1-(4-methyl-4H-1,2,4-triazol-3-yl)cyclobutyl)phenyl)-6-((((S)-3,3-difluorocyclopentyl)amino)methyl)imidazo[1,2-a]pyridine-8-carboxamide] | 8.85 | 7.94
Cn1cnnc1C[C@]1(c2cccc(NC(=O)c3cc(CNCC4(C)CCCC4)cn4ccnc34)c2)C[C@H](C#N)C1 [Compound A24, N-(3-((1r, 3r)-3-cyano-1-((4-methyl-4H-1,2,4-triazol-3-yl)methyl)cyclobutyl)phenyl)-6-((((1-methylcyclopentyl)methyl)amino)methyl)imidazo[1,2-a]pyridine-8-carboxamide] | 8.54 | 8.07
Cn1cnnc1[C@]1(c2cccc(NC(=O)c3cc(CNC4(C)CC4)cn4ccnc34)c2)C[C@H](CC#N)C1 [Compound A25, N-(3-((1s, 3s)-3-(cyanomethyl)-1-(4-methyl-4H-1,2,4-triazol-3-yl)cyclobutyl)phenyl)-6-(((1-methylcyclopropyl)amino)methyl)imidazo[1,2-a]pyridine-8-carboxamide] | 8.82 | 7.98
Cn1cnnc1[C@]1(c2cccc(NC(=O)c3cc(CNCC4CCCC4)cn4ccnc34)c2)C[C@H](CC#N)C1 [Compound A26, N-(3-((1s, 3s)-3-(cyanomethyl)-1-(4-methyl-4H-1,2,4-triazol-3-yl)cyclobutyl)phenyl)-6-(((cyclopentylmethyl)amino)methyl)imidazo[1,2-a]pyridine-8-carboxamide] | 8.89 | 8.20
